Several values for one entry are separate records, joined by “and”; a condition that tells them apart may be missing. Equal entries are not always repeated.
Tested on: GUMC-403
Assay: viability at highest tested concentration (max response) relative to DMSO (% of DMSO control); higher = less cytotoxic
Details: library / dose series: MIPE library, 11-point 1:3 dilution, 48 h
Summary of the method: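 Viability at the highest tested concentration is given relative to vehicle control. For this, conditionally reprogrammed patient-derived GUMC-403 papilloma cells at 700/well in 1536-well plates were exposed to 23 nL of pinned compound for 48 h. Luminescence from CellTiter-Glo was read on a ViewLux and scaled between empty wells (0%) and vehicle wells (100%).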

SMILES | viability (top concentration 46.1 µM) | further results
COC1=CC=C(C(=C1)OC(C)C)C/2=N/[C@@H]([C@@H](N2C(=O)N3CCNC(=O)C3)C4=CC=C(Cl)C=C4)C5=CC=C(Cl)C=C5 | 121 | 
CC[C@H]1OC(=O)[C@H](C)[C@@H](O[C@H]2C[C@@](C)(OC)[C@@H](O)[C@H](C)O2)[C@H](C)[C@@H](O[C@@H]2O[C@H](C)C[C@H](N(C)C)[C@H]2O)[C@](C)(O)C[C@@H](C)/C(=N\OCOCCOC)[C@H](C)[C@@H](O)[C@]1(C)O | 83.3 | 
CC1(C)C(=O)N(CCN2CCC(C(=O)c3ccc(F)cc3)CC2)c2ccccc21 | 71.3 | 
CC1(C)NC(=O)N(c2ccc([N+](=O)[O-])c(C(F)(F)F)c2)C1=O | 75.8 | 
Cl.Cl.Cl.O[C@@H](COc1cccc2ncccc12)CN1CCN([C@@H]2c3ccccc3[C@@H]3[C@H](c4ccccc42)C3(F)F)CC1 | 70.9 | 
O=C(Oc1ccc([N+](=O)[O-])cc1)N1CCC(C(O)(c2ccc3c(c2)OCO3)c2ccc3c(c2)OCO3)CC1 | 105 | 
Clc2cccc(Cl)c2\N=C1/NCCN1 | 132 | 
NC/1=N/C(=O)N(/C=C1)[C@H]2CC[C@@H](CO)O2 | 84.4 | 
Clc1ccc(C(Cn2ccnc2)OCc2ccsc2Cl)c(Cl)c1 (centres undefined) | 107 | 
CCCCCNC(=N)N/N=C/c1c[nH]c2ccc(OC)cc12 | 69.6 | 
CC\1=C/C=C\C=[N]1[Pt](N)(Cl)Cl | 136 | 
CN(C)CCCN\C1=C\2C(=O)N(C)C(=O)\N=C2N(C)C3=C1C=CC=C3 | 107 | 
O=C(O)c1ccc2cc(-c3ccc(O)c(C45CC6CC(CC(C6)C4)C5)c3)ccc2c1 | 109 | 
O=C1NC(O)CCN1[C@@H]1O[C@H](CO)[C@@H](O)[C@H]1O (some centres undefined) | 124 | 
O=C(O)CCn1c2c(c3ccccc31)C[C@H](N[S+](=O)([O-])c1ccc(F)cc1)CC2 | 116 | 
CN(C)c1ccc(Nc2nc(N)n(C(=O)c3c(F)cccc3F)n2)cc1 | 103 | 
CCCCOCCOc1nc(-c2ccc(C(=O)O)c(F)c2)sc1C | 105 | 
O=c1[nH]c2ccccc2n1C1CCN(Cc2ccc(-c3nc4cc5nc[nH]c5cc4nc3-c3ccccc3)cc2)CC1 | 103 | 
COc1ccc([C@@H]2CC(=O)c3c(O)cc(O[C@@H]4O[C@H](CO[C@@H]5O[C@@H](C)[C@H](O)[C@@H](O)[C@H]5O)[C@@H](O)[C@H](O)[C@H]4O)cc3O2)cc1O | 94.4 and 102 | 
Cc1c(N)nc([C@H](CC(N)=O)NC[C@@H](N)C(N)=O)nc1C(=O)N[C@H](C(=O)N[C@@H](C)[C@H](O)[C@@H](C)C(=O)N[C@@H](C(=O)NCCc1nc(-c2nc(C(=O)NCCC[S+](C)C)cs2)cs1)[C@@H](C)O)C(O[C@H]1O[C@H](CO)[C@H](O)[C@@H](O)[C@H]1O[C@H]1O[C@H](CO)[C@@H](O)[C@H](OC(N)=O)[C@@H]1O)c1c[nH]cn1 (some centres undefined) | 84.5 | 
CC1(C)[C@H](C(=O)O)N2C(=O)C[C@H]2[S+]1(=O)[O-] | 106 | 
O=[S+]([O-])(O)c1ccc2cc(/N=N/c3cc([S+](=O)([O-])O)c4cccnc4c3O)ccc2c1 | 126 | 
CC(NCCc1ccc(O)cc1)C(O)c1ccc(O)cc1 (centres undefined) | 124 | 
N#Cc1c(N(CC(=O)[O-])CC(=O)[O-])sc(C(=O)[O-])c1CC(=O)[O-].O.O.O.O.O.O.O.[Sr+2].[Sr+2] | 112 | 
CC1(C)CCC(C)(C)c2cc(NC(=O)c3ccc(C(=O)O)cc3)ccc21 | 54.2 | 
OC[C@H]1O[C@H]([C@H](O)[C@@H]1O)N2\C=C/C(=O)NC2=O | 121 | 
CC(C)C(=O)Nc1ncc(-c2cc(C(F)F)nn2-c2c(Cl)cccc2Cl)s1 | 90.8 | 

SMILES | viability (top concentration 46.1 µM) | further results
COc1cc2nc(N3CCN(C(=O)C4COc5ccccc5O4)CC3)nc(N)c2cc1OC (centres undefined) | 115 | 
NC/1=N/C2=C([NH]C=N2)C(=S)N1 | 97.1 | 
Cl.Cl.Clc1ccc(Nc2nnc(Cc3ccncc3)c3ccccc23)cc1 | 101 | 
C[C@@H](NCCCc1cccc(C(F)(F)F)c1)c1cccc2ccccc12 | 99.7 | 
COC(=O)[C@@H](N)CCCNC(=N)N[N+](=O)[O-] | 107 | 
C[C@H](NC(=O)c1sccc1OCc1ccc(Cl)cc1)c1ccccc1 | 95.3 | 
CCCN1CCO[C@@H]2c3cc(O)ccc3OC[C@H]21 | 102 | 
Cn1cc(-c2cnn3c(N)c(Br)c([C@H]4CCCNC4)nc23)cn1 | 100 | 
C/C=C/C(=O)N(CC)c1ccccc1C | 110 | 
OC(=O)C/1=C/C(=O)NC(=O)N1 | 122 | 
CN(C)CCN(C)CCc1ccc(Cl)c(Cl)c1 | 124 | 
CCCCCCCCCCCC/1=C(O)/C(=O)/C=C(O)\C1=O | 89 | 
C[C@H]1CN(C[C@@H](C)N1)C2=C(F)C3=C(C(=C2F)N)C(=O)\C(=C/N3C4CC4)C(O)=O |  | viability (top concentration 23 µM): 133
CCN(CC)C(=O)C1=CC=C(C=C1)C/2=C/C3(CCNCC3)OC4=CC=CC(=C24)O | 125 | 
N#C/C(=C\c1ccc(O)c(O)c1)C(=O)NCc1ccccc1 | 110 | 
COc1cc(C(=O)NS(=O)(=O)c2ccccc2C)ccc1Cc1cn(C)c2ccc(NC(=O)OC3CCCC3)cc12 | 28.5 | 
COc1ccc(CC2NCCc3cc(OC)c(OC)cc32)cc1OC (centres undefined) | 91.3 | 
C[C@@H]1CCO[C@H]2CN\3/C=C(/C(=O)NCC4=C(F)C=C(F)C=C4)C(=O)\C(=C3C(=O)N12)O | 110 | 
COc1cnc(N[S+](=O)([O-])c2ccc(N)cc2)nc1 | 115 | 
CC1COC2=C3N1\C=C(C(O)=O)/C(=O)C3=CC(=C2N4CCN(C)CC4)F (centres undefined) | 105 | 
Cc1cc(OCCC[S+](C)(=O)[O-])cc(C)c1-c1cccc(COc2ccc3c(c2)OC[C@H]3CC(=O)O)c1 | 112 | 
COC(=O)Nc1nc2cc(Sc3ccccc3)ccc2[nH]1 | 95.8 | 
Cc1cc(SCc2sc(-c3ccc(C(F)(F)F)cc3)nc2C)ccc1OCC(=O)O | 133 | 
NC/1=N/C(=O)N(C[C@@H](CO)OC[P](O)(O)=O)/C=C1 |  | viability (top concentration 23 µM): 104
CCCCCCCCc1ccc(CCC(N)(CO)CO)cc1 | 90.9 | 
Cc1ncc([N+](=O)[O-])n1CC(C)O (centres undefined) | 110 | 
Cc1cc(SCc2sc(-c3ccc(C(F)(F)F)c(F)c3)nc2C)ccc1OCC(=O)O | 127 | 

SMILES | viability (top concentration 46.1 µM) | further results
C=C1C[C@@]2(O)O[C@@]3(C[C@H]2C(C)C)[C@@H](C)CC[C@@H]13 | 127 | 
O=C1CCC(N2C(=O)c3ccccc3C2=O)C(=O)N1 (centres undefined) | 92 | 
N#CC[C@H](C1CCCC1)n1cc(-c2ncnc3[nH]ccc23)cn1 | 117 | 
CN(C)Cc1cccc(N/C(=C2\C(=O)Nc3cc(C(=O)N(C)C)ccc32)c2ccccc2)c1 | 95.1 | 
Nc1cccc([S+](=O)([O-])N2CCCN([S+](=O)([O-])c3ccc4c(c3)OCCO4)CC2)c1 | 87 | 
N[S+](=O)([O-])c1cc(Cl)c(Cl)c([S+](N)(=O)[O-])c1 | 109 | 
OCCn1cc(-c2ccc3c(c2)CC/C3=N\O)c(-c2ccncc2)n1 | 94.5 | 
CN(CC#C)C/C1=C/C2=CC=CC=C2OC3=CC=CC=C13 | 81.4 | 
C[C@]12CC[C@@H]3c4ccc(O)cc4CC[C@H]3[C@@H]1[C@@H](O)[C@@H](O)[C@@H]2O | 94.5 | 
C[C@@H]1C/C=C/C=C/C=C/C=C/[C@@H](O[C@@H]2O[C@H](C)[C@@H](O)[C@H](N)[C@@H]2O)C[C@@H]2O[C@](O)(C[C@@H](O)C[C@@H]3O[C@H]3/C=C/C(=O)O1)C[C@H](O)[C@H]2C(=O)O | 104 | 
O=C1[C@H](Cc2ccc(O)cc2)N2C(=O)CCN(C(=O)NCc3ccccc3)[C@H]2CN1Cc1cccc2ccccc12 | 78.2 | 
Cc1cn([C@H]2C=C[C@@H](CO)O2)c(=O)[nH]c1=O |  | viability (top concentration 92.2 µM): 92.2
CN(C)C[C@@H]1CC[N]2C=C(C3=C2C=CC=C3)C/4=C(/C(=O)NC4=O)C5=C[N](CCO1)C6=C5C=CC=C6 | 89.8 | 
CC(O)C1C2C(C)\C(=C(/N2C1=O)C(O)=O)SC3CNC(C3)C(=O)N(C)C (centres undefined) | 115 | 
C[S+](=O)([O-])N(Cc1ccco1)CC(O)Cn1c2ccccc2c2ccccc21 (centres undefined) | 90.4 | 
C[C@@H]1C[C@H]2[C@@H]3\C=C(C)/C4=C/C5=C(C[C@]4(C)[C@H]3[C@@H](O)C[C@]2(C)[C@@]1(O)C(=O)COC(C)=O)C=N[N]5C6=CC=CC=C6 | 107 | 
C#Cc1cccc(Nc2ncnc3cc(OCCOC)c(OCCOC)cc23)c1 | 47.6 | 
C[C@@H]1C[C@H]2[C@@H]3CC\C4=C\C(=O)\C=C/[C@]4(C)[C@@]3(Cl)[C@@H](O)C[C@]2(C)[C@@]1(OC(=O)C5=CC=CO5)C(=O)CCl | 133 | 
CC[C@H]1CN2CCc3cc(OC)c(OC)cc3[C@@H]2C[C@@H]1C[C@H]1NCCc2cc(OC)c(OC)cc21 | 79.9 | 
C[C@@H]1[C@H](O)[C@@H](C)C=CC=CCCC=CC=CC=CC=C[C@H](O[C@H]2O[C@@H](C)[C@H](O)[C@@H](N)[C@H]2O)CC2O[C@](O)(C[C@@H](O)[C@H](O)CC[C@@H](O)C[C@@H](O)C[C@@H](O)CC(=O)O[C@H]1C)C[C@H](O)[C@H]2C(=O)O | 115 | 
COc1c(C)c2c(c(O)c1C/C=C(\C)CCC(=O)OCCN1CCOCC1)C(=O)OC2 | 112 | 
CN(Cc1cnc2nc(N)nc(N)c2n1)c1ccc(C(=O)N[C@@H](CCC(=O)O)C(=O)O)cc1 | 111 | 
CN1C2=CC(=O)/C(=N/NC(N)=O)C=C2CC1S(=O)(=O)[O-].[Na+] (centres undefined) | 102 | 
COc1cc2c(cc1OC)[C@@H]1Cc3ccc(OC)c(OC)c3CN1CC2 | 115 | 
CC1(C)C(N(O)C(=O)Nc2ccc(Cl)cc2)N(c2ccc(Cl)cc2)C(=O)N1CC(=O)N/N=C/C=C/c1ccc([N+](=O)[O-])o1 (centres undefined) | 85.4 | 

Reference: the supplement of paper PMC6723410
